From ChEMBL document CHEMBL3988442, “University of Dundee, Small-Polar-MMV Screening Library” (2021)

What was measured:
[1] = microbe, parasite or virus in culture; conditions: Mycobacterium tuberculosis, 72 h, read-out: pIC50 (converted)
[2] = microbe, parasite or virus in culture; conditions: Mycobacterium tuberculosis, 96 h, read-out: pIC50 (converted)

| SMILES | IC50 [1] | IC50 [2] |
| --- | --- | --- |
| CN(CCc1nc(-c2cccc(Cl)c2)no1)CCn1cccn1 | 4.75 µM | 41.6 µM |
| NCc1cccc(S(=O)(=O)NCc2cccc(F)c2)c1 | 232 µM | > 501 µM |
| NC(=O)COc1cc(Cl)cc(Cl)c1 | 246 µM | 278 µM |
| O=C(NCc1n[nH]c2c1CCCCC2)c1cnn2c1CCCC2 | > 50.1 µM | > 50.1 µM |
| CC1CCCN1C1CCN(CCNS(C)(=O)=O)CC1 (centres undefined) | > 501 µM | > 501 µM |
| CN(Cc1ccc(Br)s1)CC(O)COCCO (centres undefined) | 236 µM | 165 µM |
| CN(CC(=O)Nc1ccsc1)C(=O)c1ccco1 | > 501 µM | > 501 µM |
| NC(=O)CN1CCC(COCc2ccccc2)C1 (centres undefined) | 268 µM | 292 µM |
| Cc1cc(C(=O)NCC(O)c2ccccc2Cl)no1 (centres undefined) | 177 µM | > 501 µM |
| COc1coc(CN2CCCC(CCc3ccc(F)c(F)c3)C2)cc1=O (centres undefined) | > 50.1 µM | 14.3 µM |
| Cc1ccc(C(=O)N2CCN(c3nccs3)CC2)o1 | 157 µM | 183 µM |
| CC1CC(=O)NCCN1 (centres undefined) | > 501 µM | > 501 µM |
| COc1ccc(F)c(CN2CCCC3(CCN(C4CCOCC4)C3)C2)c1 (centres undefined) | 16.7 µM | 25.1 µM |
| Cc1cc(CN2CCN(C(=O)CCc3cccs3)CC2)on1 | 4.03 µM | 10.5 µM |
| Cc1nc(N2CCCC2)nc2c1CCN(Cc1ccsc1)CC2 | 0.893 µM | 1.59 µM |
| Cn1ccc(CNC(=O)NCC2CC2)c1 | > 501 µM | > 501 µM |
| O=C(Nc1nncs1)c1ccccn1 | 36.5 µM | 139 µM |
| Cc1nc(-c2c[nH]c(C(=O)N3CCCC3)c2)cs1 | 241 µM | 427 µM |
| COc1cccc(CNCCNc2cccc(C)n2)c1 | 248 µM | > 501 µM |
| O=C(Cn1ccc(C(F)(F)F)n1)NCc1ccco1 | > 501 µM | > 501 µM |
| CS(=O)(=O)NC[C@H]1Cn2c(-c3ccc(Cl)cc3)cnc2CO1 | > 50.1 µM | > 50.1 µM |
| CC(C)CCN1CCNC(=O)C1CC(=O)NCCc1cc(O)ncn1 (centres undefined) | > 50.1 µM | > 50.1 µM |
| Cc1cc(C)cc(NC(=O)CNCCCO)c1 | > 501 µM | > 501 µM |
| NCCc1nsc2ccccc12 | 129 µM | 189 µM |
| COc1cc(Oc2cnc3ccccc3n2)ccc1CN1CCCC1 | 9.42 µM | 13 µM |
| Cc1cccc(-c2ccc(C(=O)N3CCSCC3)c(=O)[nH]2)c1 | 36.1 µM | > 50.1 µM |

| SMILES | IC50 [1] | IC50 [2] |
| --- | --- | --- |
| N#CCCSc1nnc(Cc2ccccc2F)o1 | > 50.1 µM | > 50.1 µM |
| Fc1ccc(Cn2ncc3c2CN(c2noc(C4CC4)n2)C3)cc1 | > 50.1 µM | 26.5 µM |
| CCCc1nc2c(c(C)c(C)n2Cc2ccncc2)c(N)c1CC | > 50.1 µM | > 50.1 µM |
| CN(C)C(CN)c1cccc(F)c1 (centres undefined) | > 501 µM | > 501 µM |
| Cc1ccc2nc(C3CCCN3Cc3nnc(C)s3)[nH]c2c1 (centres undefined) | > 50.1 µM | > 50.1 µM |
| N#Cc1ccc(OCC(=O)Nc2ccccn2)cc1 | 247 µM | > 501 µM |
| Brc1cc2c(cc1CN1CCCNCC1)OCO2 | 112 µM | 460 µM |
| Fc1cccc(Cl)c1CNCCOc1ccccn1 | > 50.1 µM | > 50.1 µM |
| NCC(=O)N1CCCC(CCc2ccc(F)cc2F)C1 (centres undefined) | 137 µM | 310 µM |
| Cc1cnc(C(=O)NCCSCc2ccco2)cn1 | > 501 µM | > 501 µM |
| COCc1nn(Cc2ccccc2Cl)c(=O)o1 | 35.9 µM | 393 µM |
| CCOC(=O)N1CCN(Cc2nc(C3CC3)no2)CC1 | 93.9 µM | 109 µM |
| Cn1nnnc1NCc1cccc(Cl)c1Cl | > 501 µM | > 501 µM |
| O=C(COC(=O)c1cccs1)c1ccc[nH]1 | 429 µM | 211 µM |
| CCCn1nnnc1NCc1ccc(F)cc1 | 37.8 µM | 19.8 µM |
| O=c1c2sccc2nc2n1CCN(Cc1cc(F)ccc1F)CC2 | 25 µM | > 50.1 µM |
| CC(C(N)=O)N1CCC(=Cc2ccccc2)CC1 (centres undefined) | 290 µM | 364 µM |
| Cc1cc(=O)[nH]c(SC(C)C(=O)N2CCC(NS(C)(=O)=O)CC2)n1 (centres undefined) | > 50.1 µM | > 50.1 µM |
| Cc1ccc(S(=O)(=O)N2CCOc3ccncc32)cc1 | 99.3 µM | 457 µM |
| Cc1cc(N2CCNCC2)nc2ccccc12 | 140 µM | 93.7 µM |
| CCCNc1nnc(SC2CCOC2)s1 (centres undefined) | 259 µM | 70.9 µM |
| COc1cccc(CNc2nc(C(C)C)nn2C)n1 | 315 µM | > 501 µM |
| COc1c(Cl)cc(NC(=O)C2COCCN2)cc1Cl (centres undefined) | 200 µM | > 501 µM |
| CSCc1ccc(C(=O)N2CC(CC(N)=O)C2)cc1 | > 501 µM | > 501 µM |
| O=C(NCC1COCCO1)c1cnc2ccccc2c1 (centres undefined) | > 501 µM | > 501 µM |
| CS(=O)(=O)NCc1ccnc(Oc2ccc(F)cc2)c1 | 154 µM | > 501 µM |
